Holding throughout (assay type): cell-based
For one test, the system named is MCF-7 cells. Nature of the test: Breast cancer cell viability assay (CellTiter-Glo, 5 days). The note with it: 5 days' compound exposure; for pIC50: Homo sapiens, MCF7, 120 h. The essentials:
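MCF-7 cells, 320 per well in RPMI with 10% FBS and 20 mM HEPES, adhered overnight, then exposed 5 days to an eleven-point semilog dilution (final 0.3-0.000003 μM). CellTiter-Glo luminescence read; % viability = (sample − cell-free background)/(untreated − background) × 100.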
(In general: Cellular ATP, detected with luciferase, serves as a proxy for viable cell number.)

The target of test [1] is T1, ER-α in MCF-7 cells (Homo sapiens, UniProt P03372).
T1 sequence (P03372 1-595): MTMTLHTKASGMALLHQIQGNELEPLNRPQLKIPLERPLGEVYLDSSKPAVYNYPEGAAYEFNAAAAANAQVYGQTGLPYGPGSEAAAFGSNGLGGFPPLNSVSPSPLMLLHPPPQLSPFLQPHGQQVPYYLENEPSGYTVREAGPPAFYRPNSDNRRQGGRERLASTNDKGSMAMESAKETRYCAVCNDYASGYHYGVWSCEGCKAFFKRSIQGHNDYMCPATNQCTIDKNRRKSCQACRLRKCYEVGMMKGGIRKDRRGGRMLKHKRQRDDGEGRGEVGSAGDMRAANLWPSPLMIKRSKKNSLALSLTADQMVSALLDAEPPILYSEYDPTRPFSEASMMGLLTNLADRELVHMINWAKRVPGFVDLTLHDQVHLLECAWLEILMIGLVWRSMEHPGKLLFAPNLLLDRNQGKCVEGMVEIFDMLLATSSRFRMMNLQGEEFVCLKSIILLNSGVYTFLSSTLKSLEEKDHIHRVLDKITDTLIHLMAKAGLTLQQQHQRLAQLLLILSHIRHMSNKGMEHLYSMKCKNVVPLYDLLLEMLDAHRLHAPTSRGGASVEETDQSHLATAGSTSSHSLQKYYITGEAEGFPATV
Nature of the test: Breast cancer cell ER-α in cell western assay (SP1). The settings on record: 4 or 24 hr post compound addition; for Emax: MCF7, SP1 antibody, read-out: ER-α In Cell Western Assay (SP1) Max Response; for DC50: SP1 antibody, read-out: ER-α In Cell Western Assay (SP1) IC50. On the set-up: MCF-7 cells were adjusted to a concentration of 200,000 cells per mL; endogenous in cells; host or cells: MCF-7. As for the experimental part:
MCF-7 cells were adjusted to a concentration of 200,000 cells per mL in RPMI containing 10% charcoal-stripped FBS and 20 mM HEPES. 16 microliters of the cell suspension (3200 cells) was added to each well of a poly-D-lysine 384 well plate, and the cells were incubated overnight to allow the cells to adhere. The following day an eleven point, serial semilog dilution of each compound was added to the cells in 16 μL at a final concentration ranging from 0.3-0.000003 μM. At 4 or 24 hr post compound addition, the cells were fixed (10% formalin in PBS) for 20 minutes. Cells were permeablized in PBS 0.1% Triton and blocked with LICOR blocking buffer (50 μl/well, 90°). The wells were then incubated overnight at 4° C. with SP1 rabbit monoclonal Ab (Thermo Scientific) diluted 1:1000 in LICOR blocking buffer/0.1% Tween-20. Wells which were treated with blocking buffer with Tween but no antibody were used as a background control. Wells were washed with 0.1% Tween-20/PBS and then incubated in goat anti-rabbit IRDye™ 800CW (LICOR Inc.; 1:1000) and DRAQ5 DNA dye (1:2000 for 2 mM stock) diluted in LICOR blocking buffer containing 0.1% Tween-20 and 0.01% SDS for 60 minutes. Cells were washed (50 μl/well, 5′ each) in 0.1% Tween-20/PBS. Plates were scanned on a LICOR Odyssey infrared imaging system. Integrated intensities in the 800 nm channel and 700 nm channel were measured to determine levels of ER and DNA respectively. Percent ER levels were determined as follows: (Integrated intensity 800 nm sample/integrated intensity 700 nm sample)/(Integrated intensity 800 nm untreated cells/integrated intensity 700 nm untreated cells)×100=% ER levels.

Test [2] addresses T1, ER-α in MCF-7 cells. Described as above. On the set-up: endogenous in cells; host or cells: MCF-7. The note with it: 4 or 24 hr post compound addition. Summed up:
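Fixed cells were immunostained with SP1 anti-ER antibody; ER signal (800 nm) was normalized to DRAQ5 DNA signal (700 nm) and expressed as % of untreated cells.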

pIC50: −log10 of the molar value. Read-outs that look alike come from different tables or passages of the source. Some results are limits rather than exact numbers.

Experimental findings from patent US9399646B2 (Genentech, Inc., priority 2010, dated 2016) are described below.

The term pIC50 denotes the IC50 on a negative log10 scale, so that one unit is a factor of ten.

For the molecule `O=C(O)/C=C/c1ccc(/C(=C(\c2ccncc2Cl)C2CCC2)c2ccc3scnc3c2)cc1` [Compound 285], in the test on MCF-7 cells, the “MCF7 Viability Assay Max Response” value is given as “++ (++ = a single % value ≧ 40%)” and the pIC50 is at least 7.00. Further, at ER-α in MCF-7 cells [1], the Emax is at least 40% and the DC50 was at most 100 nM.

`CC/C(=C(/c1ccc(/C=C/C(=O)O)cc1)c1cn[nH]c1)c1ccccc1` [Compound 150]: in the test with MCF-7 cells, the “MCF7 Viability Assay Max Response” value was “+ (+ = a single % value < 40%)” and the pIC50 is under 7.00. Moreover, at ER-α in MCF-7 cells [1], the Emax was at least 40% and the DC50 was over 100 nM.

As to `CC/C(=C(/c1ccc(/C=C/C(=O)O)cc1)c1ccc2[nH]ncc2c1)c1ccsc1Cl` [Compound 267, (E)-3-(4-((E)-2-(2-Chlorothiophen-3-yl)-1-(1H-indazol-5-yl)but-1-en-1-yl)phenyl)acrylic acid], in the test on MCF-7 cells, the “MCF7 Viability Assay Max Response” value was “++ (++ = a single % value ≧ 40%)” and the pIC50 was at least 7.00. Besides, the Emax on ER-α in MCF-7 cells [2] (MCF7, SP1 antibody, read-out: ER-α In Cell Western Assay (SP1) Max Response) is at least 40%. The DC50 at ER-α in MCF-7 cells [2] (SP1 antibody, read-out: ER-α In Cell Western Assay (SP1) IC50) is at most 100 nM.
